Experimental data: US9908848B2, “Amide derivatives of lactam based N-acylethanolamine acid amidase (NAAA) inhibitors” (The Regents of the University of California, priority 2013, dated 2018)
Blank lines part the entries; values can stand above or below the compound they belong to.

What was measured:
human NAAA = biological target: T1, human NAAA (Homo sapiens, UniProt Q02083); assay: Fluorogenic h-NAAA assay; type: biochemical; settings: for inhibition at 2.5 µM / inhibition at 50 µM: read-out: h-NAAA Fluorogenic assay % inhib.; for IC50: recombinant HEK-hNAAA preparation; for h-NAAA Fluorogenic assay (n.a.): @100 μM
T1 construct: made in house; host or cells: HEK293 cells, stably transfected; soluble fraction after freeze/thaw
T1 sequence (Q02083 29-359): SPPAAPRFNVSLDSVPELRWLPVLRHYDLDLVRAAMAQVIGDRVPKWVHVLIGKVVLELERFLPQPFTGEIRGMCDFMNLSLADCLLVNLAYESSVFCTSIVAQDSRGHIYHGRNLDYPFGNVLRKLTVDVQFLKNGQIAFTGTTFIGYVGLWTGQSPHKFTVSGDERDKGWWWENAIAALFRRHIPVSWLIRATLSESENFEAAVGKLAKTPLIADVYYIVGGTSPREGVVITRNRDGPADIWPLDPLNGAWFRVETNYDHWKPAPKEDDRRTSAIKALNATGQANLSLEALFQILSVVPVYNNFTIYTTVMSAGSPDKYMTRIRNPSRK
Description: Hek293 cells stably transfected with the human NAAA coding sequence cloned from a human spleen cDNA library were used as enzyme source. Recombinant HEK-hNAAA pellets were resuspended in homogenizing buffer, and sonicated. Samples were centrifuged at 800×g for 15 min at 4° C. and the supernatants were ultracentrifuged at 12,000×g for 30 min at 4° C. The pellets were resuspended in PBS pH 7.4 on ice and subjected to a freeze/thaw cycle at −80° C. (two freeze/thaw cycles at −80° C. for Examples 34-37). The suspension was finally centrifuged at 105,000×g for 1 h at 4° C. Protein concentration was measured and samples stored at −80° C. until use.
The assay was run in Optiplate 96-wells black plates, in a total reaction volume of 200 μL. NAAA protein preparation (4.0 μg for Examples except 34-37, which were 20.0 μg) was pre-incubated for 10 min with various concentrations of test compounds or vehicle control (5% DMSO) in 100 mM citrate/phosphate buffer (pH 4.5) containing 3.0 mM DTT, 0.1% Triton X-100, 0.05% BSA, 150 mM NaCl. N-(4-methyl-2-oxo-chromen-7-yl)-hexadecanamide was used as a substrate (5.0 μM) and the reaction carried over for 30 min at 37° C. The samples were then read in a Perkin Elmer Envision plate reader using an excitation wavelength of 360 nm and emission 460 nm. IC50 values were calculated by non-linear regression analysis of log [concentration]/inhibition curves using GraphPad Prism 5 (GraphPad Software Inc., CA—USA) applying a standard slope curve fitting.

r-NAAA = biological target: T2, r-NAAA (Rattus norvegicus, UniProt Q5KTC7); assay: UPLC/MS r-NAAA assay; type: biochemical; settings: for inhibition at 30 µM / inhibition at 3 µM: read-out: r-NAAA UPLC/MS assay % inhib.; for IC50: rat lung lysosomal NAAA preparation; for r-NAAA UPLC/MS assay (n.a.): @100 μM
T2 construct: Lysosomal NAAA protein preparation was obtained by homogenizing male Sprague-Dawley rat lungs; tissue Charles River; host or cells: male Sprague-Dawley rat lung, soluble lysosomal fraction
T2 sequence (Q5KTC7 34-362): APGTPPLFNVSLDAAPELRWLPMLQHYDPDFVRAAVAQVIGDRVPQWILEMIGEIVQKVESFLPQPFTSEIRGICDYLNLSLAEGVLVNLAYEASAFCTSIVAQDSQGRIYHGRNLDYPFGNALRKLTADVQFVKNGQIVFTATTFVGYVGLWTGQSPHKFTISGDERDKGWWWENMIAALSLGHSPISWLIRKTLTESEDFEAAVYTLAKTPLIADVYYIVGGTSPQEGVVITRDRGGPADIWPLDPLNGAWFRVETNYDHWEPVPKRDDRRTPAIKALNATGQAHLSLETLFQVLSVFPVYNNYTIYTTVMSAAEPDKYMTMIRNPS
Description: Lysosomal NAAA protein preparation was obtained by homogenizing male Sprague-Dawley rat lungs (Charles River) in 20 mM Tris-HCl buffer pH 7.4 containing 0.32M sucrose. Samples were centrifuged at 800×g for 15 min at 4° C. Supernatants were centrifuged at 12,000×g for 30 min at 4° C. Pellets were then resuspended in PBS pH 7.4 and subjected to a freeze/thaw cycle at −80° C. The suspension was finally centrifuged at 105,000 g for 1 h at 4° C. The supernatant was used in enzymatic assays.
NAAA preparations were pre-incubated with various concentrations of test compounds or vehicle control in 100 mM NaH2PO4/Citrate buffer, 1% Triton-X, 3 mM DTT (pH 4.5) for 30 min at 37° C. Samples were incubated with heptadecenoylethanolamide (50 μM, Avanti Polar Lipids) at 37° C. for 30 min. The reaction was terminated by addition of cold methanol containing heptadecanoic acid (NuCheck Prep) as internal standard. Samples were analyzed by UPLC/MS (Acquity, Waters). Heptadecenoic and heptadecanoic acids were eluted on an Acquity UPLC BEH C18 column (50 mm length, 2.1 mm i.d., 1.7 μm pore size, Waters) isocratically at 0.5 mL/min for 1.5 min with a solvent mixture of 95% methanol and 5% H2O, both containing 0.25% Acetic Acid and 5.0 mM ammonium acetate. The column temperature was 40° C. Electrospray ionization was in the negative mode, capillary voltage was 0.5 kV, cone voltage was […], desolvation temperature was 500° C. N2 was used as drying gas at a flow rate of 1000 L/hour and a temperature of 500° C. The [M−H]^− ion was monitored in the selected-ion monitoring mode (m/z values: heptadecenoic acid 267.37, heptadecanoic acid 269.37). Calibration curves were generated using commercial heptadecenoic acid (NuCheck Prep) Inhibition of NAAA activity was calculated as reduction of heptadecenoic acid in the samples compared to vehicle controls. IC50 values were calculated by non-linear regression analysis of log [concentration]/inhibition curves using GraphPad Prism 5 (GraphPad Software Inc., CA—USA) applying a standard slope curve fitting.

[1] = tested on: carrageenan-induced paw edema and heat hyperalgesia; assay: Carrageenan-induced inflammation (paw edema, heat hyperalgesia); type: in vivo; settings: mice, oral administration (p.o.), 3-30 mg/kg, dose- and time-dependent

Structure (SMILES): O=C(CCCCC1CCCCC1)N[C@H]1CNC1=O [Example 16, 5-Cyclohexyl-N-[(3S)-2-oxoazetidin-3-yl]-pentanamide]
IC50 (r-NAAA): 1 µM

Structure (SMILES): CCCCCCCC(C)C(=O)N[C@H]1CNC1=O (mixture of isomers) [Example 36, (2R)-2-methyl-N-[(3S)-2-oxoazetidin-3-yl]nonanamide and (2S)-2-methyl-N-[(3S)-2-oxoazetidin-3-yl]nonanamide]
IC50 (human NAAA): 0.22 µM

Structure (SMILES): CCCCCCCCC(=O)N(C)[C@H]1CNC1=O [Example 27, N-Methyl-N-[(3S)-2-Oxoazetidin-3-yl]-nonanamide]
inhibition at 3 µM (r-NAAA): 40% | inhibition at 2.5 µM (human NAAA): 20%

Structure (SMILES): O=C(N[C@@H]1CNC1=O)c1ccc(-c2ccccc2)cc1 [Example 2, 4-Phenyl-N-[(3R)-2-oxoazetidin-3-yl]-benzamide]
inhibition at 3 µM (r-NAAA): 10%

Structure (SMILES): CCCCC/C=C\CC(=O)N[C@H]1CNC1=O [Example 6, (Z)—N-[(3S)-2-Oxoazetidin-3-yl]-non-3-enamide]
IC50 (r-NAAA): 0.68 µM | IC50 (human NAAA): 1.94 µM

Structure (SMILES): CC1(C(=O)N[C@H]2CNC2=O)CCCCC1 [Example 13, 1-Methyl-N-[(3S)-2-oxoazetidin-3-yl]-cyclohexane-carboxamide]
r-NAAA UPLC/MS assay (n.a.) (r-NAAA): n.a. (n.a. = <10% inhib.@100 μM)

Structure (SMILES): C[C@@H]1NC(=O)[C@H]1NC(=O)CCc1ccc(-c2ccccc2)cc1 [Example 29, N-[(2S,3S)-2-methyl-4-oxo-azetidin-3-yl]-3-(4-phenylphenyl)-propanamide]
inhibition at 50 µM (human NAAA): 60%

Structure (SMILES): O=C(N[C@H]1CNC1=O)c1ccc(-c2ccccc2)cc1 [Example 1, 4-Phenyl-N-[(3S)-2-oxoazetidin-3-yl]-benzamide]
inhibition at 3 µM (r-NAAA): 15%

Structure (SMILES): CCCCCCCCC(=O)N[C@@H]1C(=O)N[C@H]1C [Example 28, N-[(2S,3S)-2-methyl-4-oxo-azetidin-3-yl]-nonanamide]
IC50 (human NAAA): 0.38 µM

Structure (SMILES): O=C(CCCCCC1CCCCC1)N[C@H]1CNC1=O [Example 17, 6-Cyclohexyl-N-[(3S)-2-oxoazetidin-3-yl]-hexanamide]
IC50 (r-NAAA): 0.13 µM | IC50 (human NAAA): 0.275 µM

Structure (SMILES): CCCC[C@H]1CC[C@H](C(=O)N[C@H]2CNC2=O)CC1 [Example 34, (1r,4R)-4-butyl-N—((S)-2-oxoazetidin-3-yl)cyclohexanecarboxamide]
IC50 (human NAAA): 4.02 µM

Structure (SMILES): CC1(C(=O)N[C@@H]2CNC2=O)CCCCC1 [Example 14, 1-Methyl-N-[(3R)-2-oxoazetidin-3-yl]-cyclohexane-carboxamide]
r-NAAA UPLC/MS assay (n.a.) (r-NAAA): n.a. (n.a. = <10% inhib.@100 μM)

Structure (SMILES): CCCCC/C=C/CC(=O)N[C@H]1CNC1=O [Example 5, (E)-N-[(3S)-2-Oxoazetidin-3-yl]-non-3-enamide]
IC50 (r-NAAA): 2.3 µM | IC50 (human NAAA): 1.34 µM | heat hyperalgesia [1]: markedly attenuated | paw edema [1]: markedly attenuated

Structure (SMILES): CCCCCCCC(C)(C)C(=O)N[C@H]1CNC1=O [Example 37, 2,2-dimethyl-N-[(3S)-2-oxoazetidin-3-yl]nonanamide]
IC50 (human NAAA): 0.758 µM

The remaining lines, values ahead:

inhibition at 2.5 µM (human NAAA): 16%
Structure (SMILES): CCCCc1ccc(C(=O)N[C@H]2CNC2=O)cc1 [Example 33, 4-Butyl-N-[(3S)-2-oxoazetidin-3-yl]-benzamide]

inhibition at 30 µM (r-NAAA): 20%
Structure (SMILES): O=C(C/C=C/c1ccccc1)N[C@H]1CNC1=O [Example 15, (E)-N-[(3S)-2-Oxoazetidin-3-yl]-4-phenyl-but-3-enamide]

inhibition at 3 µM (r-NAAA): 30%
Structure (SMILES): O=C(CCCCCCc1ccccc1)N[C@@H]1CNC1=O [Example 8, 7-Phenyl-N-[(3R)-2-Oxoazetidin-3-yl]-heptanamide]

inhibition at 30 µM (r-NAAA): 10%
Structure (SMILES): O=C(N[C@H]1CNC1=O)c1ccc(OCc2ccccc2)cc1 [Example 11, 4-Benzyloxy-N-[(3S)-2-oxoazetidin-3-yl]-benzamide]

IC50 (human NAAA): 7.83 µM
Structure (SMILES): CCCCCCC(=O)N[C@H]1CNC1=O [Example 21, N-[(3S)-2-Oxoazetidin-3-yl]-heptanamide]

IC50 (human NAAA): 110 µM
Structure (SMILES): O=C(CCCc1ccccc1)N[C@H]1CNC1=O [Example 32, 4-Phenyl-N-[(3S)-2-oxoazetidin-3-yl]-butanamide]

IC50 (human NAAA): 13.4 µM
Structure (SMILES): O=C(CCCCCc1ccccc1)N[C@H]1CNC1=O [Example 31, 6-Phenyl-N-[(3S)-2-oxoazetidin-3-yl]-hexanamide]

h-NAAA Fluorogenic assay (n.a.) (human NAAA): n.a. (n.a. = <10% inhib.@100 μM)
Structure (SMILES): O=C(CCc1ccc(-c2ccccc2)cc1)N[C@H]1CNC1=O [Example 18, 3-(4-Phenylphenyl)-N-[(3S)-2-oxoazetidin-3-yl]-propanamide]

h-NAAA Fluorogenic assay (n.a.) (human NAAA): n.a. (n.a. = <10% inhib.@100 μM)
Structure (SMILES): O=C(CCCCc1ccccc1)N[C@@H]1CNC1=O [Example 26, 5-Phenyl-N-[(3R)-2-oxoazetidin-3-yl]-pentanamide]

r-NAAA UPLC/MS assay (n.a.) (r-NAAA): n.a. (n.a. = <10% inhib.@100 μM)
Structure (SMILES): O=C(CCCOCc1ccccc1)N[C@H]1CNC1=O [Example 9, 4-Benzyloxy-N-[(3S)-2-oxoazetidin-3-yl]-butanamide]

IC50 (human NAAA): 40 µM
Structure (SMILES): CCCCCCCCC(=O)N[C@@H]1CNC1=O [Example 4, N-[(3R)-2-Oxoazetidin-3-yl]-nonanamide]

IC50 (human NAAA): 15.6 µM
Structure (SMILES): CCCc1ccc(CC(=O)N[C@H]2CNC2=O)cc1 [Example 35, N-[(3S)-2-oxoazetidin-3-yl]-2-(4-propylphenyl)acetamide]

inhibition at 50 µM (human NAAA): 15%
Structure (SMILES): O=C(CCc1ccccc1)N[C@H]1CNC1=O [Example 19, 3-Phenyl-N-[(3S)-2-oxoazetidin-3-yl]-propanamide]

IC50 (human NAAA): 0.043 µM
Structure (SMILES): CCCCCCCCCCC(=O)N[C@H]1CNC1=O [Example 24, N-[(3S)-2-Oxoazetidin-3-yl]-undecanamide]

h-NAAA Fluorogenic assay (n.a.) (human NAAA): n.a. (n.a. = <10% inhib.@100 μM)
Structure (SMILES): O=C(CCc1ccccc1)N[C@@H]1CNC1=O [Example 20, 3-Phenyl-N-[(3R)-2-oxoazetidin-3-yl]-propanamide]

inhibition at 30 µM (r-NAAA): 10%
Structure (SMILES): O=C(CCCOCc1ccccc1)N[C@@H]1CNC1=O [Example 10, 4-Benzyloxy-N-[(3R)-2-oxoazetidin-3-yl]-butanamide]

IC50 (human NAAA): 33.9 µM
Structure (SMILES): O=C(CCCCc1ccccc1)N[C@H]1CNC1=O [Example 25, 5-Phenyl-N-[(3S)-2-oxoazetidin-3-yl]-pentanamide]

IC50 (human NAAA): 0.93 µM
Structure (SMILES): CCCCCCCC(=O)N[C@H]1CNC1=O [Example 22, N-[(3S)-2-Oxoazetidin-3-yl]-octanamide]

inhibition at 3 µM (r-NAAA): 10%
Structure (SMILES): O=C(N[C@@H]1CNC1=O)c1ccc(OCc2ccccc2)cc1 [Example 12, 4-Benzyloxy-N-[(3R)-2-oxoazetidin-3-yl]-benzamide]
